Assay results: US20070191393A1, “Macrocyclic anilinopyrimidines with substituted sulphoximine as selective inhibitors of cell cycle kinases” (priority 2006, published 2007)
pIC50: −log10 of the molar value.

Assays:
Type in all cases: biochemical
Chk1 = target: T1, Chk1 (Homo sapiens, UniProt O14757); assay: Chk1 kinase assay; settings: 10 μM ATP, 22° C., 60 min
T1 construct: made in house; host or cells: Sf9 insect cells
T1 sequence (O14757 1-476): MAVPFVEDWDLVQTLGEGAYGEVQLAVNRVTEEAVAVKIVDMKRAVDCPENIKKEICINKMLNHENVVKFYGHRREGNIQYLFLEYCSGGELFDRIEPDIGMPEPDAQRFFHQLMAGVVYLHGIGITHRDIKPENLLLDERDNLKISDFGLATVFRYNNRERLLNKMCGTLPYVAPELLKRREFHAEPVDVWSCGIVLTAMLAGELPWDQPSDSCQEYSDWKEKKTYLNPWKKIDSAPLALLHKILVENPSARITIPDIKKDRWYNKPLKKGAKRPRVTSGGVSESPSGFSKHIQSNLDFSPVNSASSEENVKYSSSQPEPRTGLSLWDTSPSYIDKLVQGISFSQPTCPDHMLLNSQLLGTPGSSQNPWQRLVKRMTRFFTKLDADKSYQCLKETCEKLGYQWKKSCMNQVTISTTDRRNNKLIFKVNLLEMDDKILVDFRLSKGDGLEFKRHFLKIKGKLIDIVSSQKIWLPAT
Method: Recombinant Chk1 protein was expressed in Sf9 insect cells and then purified. The kinase substrate used was the biotinylated peptide having the amino acid sequence biotin-ALKLVRTPSFVITAK, which was purchased from Biosynthan GmbH in Berlin.
Chk1 [0.11 μg/ml in the test mixture, test volume 5 μl] was incubated in the presence of various concentrations of test substances (0 μM, and 10 measurement points within the range 0.001-20 μM in duplicate) in assay buffer [50 mM HEPES pH 7.5, 10 mM MgCl2, […], 0.1 mM Na ortho-vanadate, 1.0 mM dithiothreitol, 1 tablet/2.5 ml complete protease inhibitor (from Roche), 10 μM ATP, 1.0 μM substrate peptide biotin-ALKLVRTPSFVITAK, 1.0% dimethyl sulphoxide] at 22° C. for 60 min. The reaction was stopped by adding 5 μl of an EDTA/detection solution [100 mM EDTA, 800 mM potassium fluoride, 0.2% BSA, 0.2 μM streptavidin-XLent (from CisBio), 9.6 nM anti-phospho-Akt antibody (from Cell Signalling Technology), 4 nM protein-A-Eu(K) (from CisBio)]. The fluorescence emission at 620 nm and 665 nm after excitation with light of the wavelength 350 nm was measured in a Rubystar HTRF instrument from BMG Labsystems.
The measured data (ratio of emission 665 divided by emission 620 multiplied by 10 000) were normalized to 0% inhibition (enzyme reaction without inhibitor) and 100% inhibition (all assay components apart from enzyme). The IC50 values were determined by means of a 4-parameter fit using the company's own software.

Aurora-A = target: T2, Aurora-A (Homo sapiens, UniProt O14965); assay: Aurora-A kinase assay; settings: 8 μM ATP, 22° C., 90 min
T2 construct: purchased Upstate; host or cells: Sf21 insect cells
T2 sequence (O14965 1-403): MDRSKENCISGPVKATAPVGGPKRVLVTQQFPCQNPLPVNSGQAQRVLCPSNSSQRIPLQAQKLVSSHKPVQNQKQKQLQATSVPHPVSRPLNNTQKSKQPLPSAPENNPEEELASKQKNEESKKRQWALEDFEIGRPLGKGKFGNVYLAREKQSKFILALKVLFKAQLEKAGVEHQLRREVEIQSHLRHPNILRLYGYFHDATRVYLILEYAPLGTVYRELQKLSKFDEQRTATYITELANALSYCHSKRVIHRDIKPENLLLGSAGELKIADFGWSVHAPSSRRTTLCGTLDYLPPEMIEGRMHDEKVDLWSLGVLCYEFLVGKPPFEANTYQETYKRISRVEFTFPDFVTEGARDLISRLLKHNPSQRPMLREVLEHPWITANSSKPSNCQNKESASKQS
Method: Recombinant Aurora-A protein, expressed in Sf21 insect cells, was purchased from Upstate. The kinase substrate used was the biotinylated peptide having the amino acid sequence biotin-LNYNRRLSLGPMF, which was purchased from Jerini A G in Berlin.
Aurora-A [15 nM in the test mixture, test volume 5 μl] was incubated in the presence of various concentrations of test substances (0 μM and 10 measurement points within the range 0.001-20 μM in duplicate) in assay buffer [25 mM HEPES pH 7.4, 3 mM MnCl2, 5 mM MnCl2, 0.1 mM Na ortho-vanadate, 2.0 mM dithiothreitol, 0.05% bovine serum albumin (BSA), 0.01% Triton X-100, 8 μM ATP, 4 nCi/μl gama-P33-ATP, 5.0 μM substrate peptide biotin-LNYNRRLSLGPMF, 1.0% dimethyl sulphoxide] at 22° C. for 90 min. The reaction was stopped by adding 12.5 μl of an EDTA/detection solution [16 mM EDTA, 40 mM ATP, 0.08% Triton X-100, 4 mg/ml PVT streptavidin SPA beads (from Amersham)]. After incubation for 10 minutes, the SPA beads were pelleted by centrifugation at 1000×G for 10 minutes. Measurement took place in a PerkinElmer Topcount scintillation counter.
The measured data were normalized to 0% inhibition (enzyme reaction without inhibitor) and 100% inhibition (enzyme reaction in the presence of 0.1 μM staurosporine (from Sigma)). The IC50 values were determined by means of a 4-parameter fit using the company's own software.

c-kit = target: T3, c-kit (Homo sapiens, UniProt P10721); assay: c-Kit kinase assay; settings: 10 μM ATP, 22° C., 30 min
T3 construct: made in house; host or cells: E. coli
T3 sequence (P10721 26-976): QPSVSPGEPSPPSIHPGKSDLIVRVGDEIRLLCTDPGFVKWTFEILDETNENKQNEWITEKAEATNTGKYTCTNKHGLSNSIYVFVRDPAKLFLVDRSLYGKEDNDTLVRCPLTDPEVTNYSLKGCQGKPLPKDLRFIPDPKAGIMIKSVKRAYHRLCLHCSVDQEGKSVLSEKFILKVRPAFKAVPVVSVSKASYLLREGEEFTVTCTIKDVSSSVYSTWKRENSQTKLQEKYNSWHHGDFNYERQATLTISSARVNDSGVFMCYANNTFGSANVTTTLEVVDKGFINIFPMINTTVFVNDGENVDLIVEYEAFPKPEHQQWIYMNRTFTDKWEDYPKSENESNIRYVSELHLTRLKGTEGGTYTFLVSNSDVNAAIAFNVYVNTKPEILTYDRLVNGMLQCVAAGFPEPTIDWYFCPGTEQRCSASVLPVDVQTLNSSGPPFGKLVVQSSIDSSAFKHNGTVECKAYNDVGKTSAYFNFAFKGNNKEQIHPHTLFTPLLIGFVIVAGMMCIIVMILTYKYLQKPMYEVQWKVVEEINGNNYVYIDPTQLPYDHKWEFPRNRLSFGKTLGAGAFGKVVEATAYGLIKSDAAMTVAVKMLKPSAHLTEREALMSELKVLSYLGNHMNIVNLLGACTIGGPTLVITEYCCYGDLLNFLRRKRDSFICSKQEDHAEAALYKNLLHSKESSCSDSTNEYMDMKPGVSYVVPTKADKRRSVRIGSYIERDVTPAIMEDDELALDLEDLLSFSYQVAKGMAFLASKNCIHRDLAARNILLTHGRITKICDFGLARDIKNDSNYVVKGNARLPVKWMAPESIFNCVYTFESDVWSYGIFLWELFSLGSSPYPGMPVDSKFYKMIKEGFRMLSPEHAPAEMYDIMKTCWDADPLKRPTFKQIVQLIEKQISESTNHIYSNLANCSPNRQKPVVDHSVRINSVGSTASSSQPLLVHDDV
Method: Recombinant c-kit protein was expressed in E. coli and then purified. The kinase substrate used was the biotinylated peptide having the amino acid sequence biotin-poly GluTyr, which was purchased from CisBio.
C-kit [test volume 5 μl] was incubated in the presence of various concentrations of test substances (0 μM, and 10 measurement points within the range 0.001-20 μM in duplicate) in assay buffer [50 mM HEPES pH 7.0, 1.0 mM MgCl2, […], 0.1 mM Na ortho-vanadate, 1.0 mM dithiothreitol, 0.001% NP40, 10 μM ATP, 0.03 μM substrate peptide biotin-poly GluTyr, 1.0% dimethyl sulphoxide] at 22° C. for 30 min. The reaction was stopped by adding 5 μl of an EDTA/detection solution [50 mM HEPES pH 7.5, 80 mM EDTA, 0.2% BSA, 0.1 μM streptavidin-XLent (from CisBio), 1 nM PT66-Eu (from PerkinElmer)]. The fluorescence emission at 620 nm and 665 nm after excitation with light of the wavelength 350 nm was measured in a Rubystar HTRF instrument from BMG Labsystems. The measured data (ratio of emission 665 divided by emission 620 multiplied by 10 000) were normalized to 0% inhibition (enzyme reaction without inhibitor) and 100% inhibition (all assay components apart from enzyme). The IC50 values were determined by means of a 4-parameter fit using the company's own software.

Row | Structure (SMILES) | pIC50 (Chk1) | pIC50 (Aurora-A) | pIC50 (c-kit)
1 | CCOC(=O)N=S(C)(=O)c1ccc2cc1NCCCCNc1nc(ncc1Br)N2 (racemic) [Example 1, (RS)—S-[1^5-Bromo-2,4,9-triaza-1(2,4)-pyrimidina-3(1,3)-benzenacyclononaphan-3^4-yl]-N-(ethoxycarbonyl)-S-methylsulphoximide] | 5.33 | 7.57 | 7.54
2 | CCOC(=O)N=S(C)(=O)c1ccc2cc1NCCCCNc1nc(ncc1Br)N2 (single isomer, unassigned) [Example 2] | 5.44 | 7.59 | 7.34
3 | CCNC(=O)N=S(C)(=O)c1ccc2cc1NCCCCNc1nc(ncc1Br)N2 (racemic) [Example 6, (RS)—S-[1^5-Bromo-2,4,9-triaza-1(2,4)-pyrimidina-3(1,3)-benzenacyclononaphan-3^4-yl]-N-(ethylcarbamoyl)-S-methylsulphoximide] | 5.42 | 7.68 | 7.85
4 | CCCS(=O)(=O)N=S(C)(=O)c1ccc2cc1NCCCCNc1nc(ncc1Br)N2 (racemic) [Example 7, (RS)—S-[1^5-Bromo-2,4,9-triaza-1(2,4)-pyrimidina-3(1,3)-benzenacyclononaphan-3^4-yl]-S-methyl-N-(propylsulphonyl)sulphoximide] | < 4.70 | 7.36 | 7.77
5 | C[Si](C)(C)CCS(=O)(=O)N=S(C)(=O)c1ccc2cc1OCCCCNc1nc(ncc1Br)N2 (racemic) [Example 9, (RS)—S-[1^5-Bromo-4-oxa-2,9-diaza-1(2,4)-pyrimidina-3(1,3)-benzenacyclononaphan-3^4-yl]-S-methyl-N-[2-(trimethylsilyl)ethylsulphonyl]sulphoximide] | < 4.90 | 6.19 | < 4.90
6 | C[Si](C)(C)CCS(=O)(=O)N=S(C)(=O)c1ccc2cc1NCCCCNc1nc(ncc1Br)N2 (racemic) [Example 5, (RS)—S-[1^5-Bromo-2,4,9-triaza-1(2,4)-pyrimidina-3(1,3)-benzenacyclononaphan-3^4-yl]-S-methyl-N-[2-(trimethylsilyl)ethylsulphonyl]sulphoximide] | < 4.70 | 6.07 | 6.79

Next, values leading:

Row | pIC50 (Chk1) | pIC50 (Aurora-A) | pIC50 (c-kit) | Structure (SMILES)
7 | < 4.70 |  | 6.45 | CCCOC(=O)N=S(C)(=O)c1ccc2cc1OCCCCNc1nc(ncc1Br)N2 (racemic) [Example 8, (RS)—S-[1^5-Bromo-4-oxa-2,9-diaza-1(2,4)-pyrimidina-3(1,3)-benzenacyclononaphan-3^4-yl]-S-methyl-N-(propoxycarbonyl)sulphoximide]
8 | 5.73 | 7.51 | 7.64 | CCOC(=O)N=S(C)(=O)c1ccc2cc1NCCCCNc1nc(ncc1I)N2 (racemic) [Example 4, (RS)—N-(Ethoxycarbonyl)-S-[1^5-iodo-2,4,9-triaza-1(2,4)-pyrimidina-3(1,3)-benzenacyclononaphan-3^4-yl]-S-methylsulphoximide]
9 | 5.17 | 7.11 | 7.19 | CCOC(=O)N=S(C)(=O)c1ccc2cc1NCCCCNc1nc(ncc1Br)N2 (single isomer, unassigned) [Example 3]
